From the supplement of paper PMC12463676, “Small-molecule dissolution of stress granules by redox modulation benefits ALS models” (Nature Chemical Biology, 2025)

Key:
potassium arsenate = compound: O=[As]([O-])(O)O.[K+] [potassium arsenate]; assay: thermal stability z-score vs DMSO; higher = more thermally stabilized by treatment; settings: HeLa; arsenate concentration 1 mM
Description: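 Cellular thermal proteome profiling in HeLa cells treated with 1 mM arsenate for 1 h (DMSO pretreatment), heated to ten temperatures (37-66.3 °C). Soluble protein was quantified by TMT mass spectrometry relative to DMSO controls; the thermal stability score was transformed to a z-score; mean of n = 3 experiments.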

lipoamide = compound: NC(=O)CCCCC1CCSS1 [lipoamide]; assay: as above; settings: HeLa, lipoamide concentration 100 µM
Description: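 Cellular thermal proteome profiling in HeLa cells. Cells were treated with 100 µM lipoamide for 1 h, with or without 1 mM arsenate for a further 1 h, then heated to ten temperatures (37-66.3 °C), and soluble protein was quantified by TMT mass spectrometry relative to 0.1% DMSO controls. The thermal stability score (sum of log2 fold changes minus the abundance score) was transformed to a z-score; mean of n = 3 experiments.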

[1] = arsenate co-treatment: 1 mM arsenate 1 h
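Also: each temperature applied for 3 min, abundance score taken as mean log2 fold change at the two lowest temperatures, z-score obtained by mean subtraction and division by SD.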

Chain of UniProt Q96ES7 (Q96ES7 whole entry): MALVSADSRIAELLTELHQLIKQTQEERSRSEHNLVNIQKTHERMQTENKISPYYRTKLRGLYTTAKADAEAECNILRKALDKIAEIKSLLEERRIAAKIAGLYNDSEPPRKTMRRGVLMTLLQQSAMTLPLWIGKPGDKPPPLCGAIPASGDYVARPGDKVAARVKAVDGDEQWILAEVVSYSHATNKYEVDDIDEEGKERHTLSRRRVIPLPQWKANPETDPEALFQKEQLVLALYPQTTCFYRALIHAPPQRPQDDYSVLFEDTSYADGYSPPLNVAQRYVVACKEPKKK
Chain of UniProt P13861 (P13861 whole entry): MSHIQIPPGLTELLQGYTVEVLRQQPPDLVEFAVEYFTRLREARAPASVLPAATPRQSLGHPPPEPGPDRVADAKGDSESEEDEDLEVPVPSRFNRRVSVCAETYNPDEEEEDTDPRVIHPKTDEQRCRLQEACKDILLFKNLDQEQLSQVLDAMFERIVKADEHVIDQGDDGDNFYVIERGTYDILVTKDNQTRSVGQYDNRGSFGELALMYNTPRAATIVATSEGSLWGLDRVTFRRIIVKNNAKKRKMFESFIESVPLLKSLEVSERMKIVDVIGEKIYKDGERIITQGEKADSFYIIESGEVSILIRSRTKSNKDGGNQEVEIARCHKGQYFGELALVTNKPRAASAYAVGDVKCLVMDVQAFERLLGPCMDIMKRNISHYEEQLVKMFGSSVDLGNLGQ
Chain of UniProt Q06203 (Q06203 whole entry): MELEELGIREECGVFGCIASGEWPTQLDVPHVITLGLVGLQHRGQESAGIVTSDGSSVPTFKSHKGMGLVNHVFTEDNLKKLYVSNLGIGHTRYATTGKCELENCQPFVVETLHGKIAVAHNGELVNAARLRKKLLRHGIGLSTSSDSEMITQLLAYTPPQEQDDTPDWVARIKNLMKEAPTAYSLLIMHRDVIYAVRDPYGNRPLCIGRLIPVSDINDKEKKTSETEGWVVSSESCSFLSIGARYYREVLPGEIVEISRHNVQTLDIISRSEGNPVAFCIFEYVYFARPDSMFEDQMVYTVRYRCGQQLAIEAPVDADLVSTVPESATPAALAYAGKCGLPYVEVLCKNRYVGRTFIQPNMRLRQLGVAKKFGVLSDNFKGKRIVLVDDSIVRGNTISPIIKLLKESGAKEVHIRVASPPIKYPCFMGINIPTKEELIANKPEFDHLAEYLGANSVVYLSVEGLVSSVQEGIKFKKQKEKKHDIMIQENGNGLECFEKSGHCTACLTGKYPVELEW
Chain of UniProt Q9P2K6 (Q9P2K6 whole entry): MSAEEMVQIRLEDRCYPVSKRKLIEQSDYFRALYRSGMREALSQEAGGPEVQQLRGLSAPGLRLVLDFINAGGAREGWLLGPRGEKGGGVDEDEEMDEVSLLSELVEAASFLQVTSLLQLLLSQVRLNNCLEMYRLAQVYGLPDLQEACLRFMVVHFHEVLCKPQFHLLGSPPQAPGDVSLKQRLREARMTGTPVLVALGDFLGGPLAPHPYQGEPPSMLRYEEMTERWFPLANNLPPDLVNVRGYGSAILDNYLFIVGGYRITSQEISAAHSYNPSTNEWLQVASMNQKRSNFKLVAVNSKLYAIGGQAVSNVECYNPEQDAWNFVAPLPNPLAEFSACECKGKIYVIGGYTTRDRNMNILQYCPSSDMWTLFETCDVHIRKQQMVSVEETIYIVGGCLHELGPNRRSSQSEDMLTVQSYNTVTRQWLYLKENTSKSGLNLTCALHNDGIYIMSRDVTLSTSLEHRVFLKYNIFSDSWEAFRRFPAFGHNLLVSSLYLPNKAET
Chain of UniProt Q12824 (Q12824 whole entry): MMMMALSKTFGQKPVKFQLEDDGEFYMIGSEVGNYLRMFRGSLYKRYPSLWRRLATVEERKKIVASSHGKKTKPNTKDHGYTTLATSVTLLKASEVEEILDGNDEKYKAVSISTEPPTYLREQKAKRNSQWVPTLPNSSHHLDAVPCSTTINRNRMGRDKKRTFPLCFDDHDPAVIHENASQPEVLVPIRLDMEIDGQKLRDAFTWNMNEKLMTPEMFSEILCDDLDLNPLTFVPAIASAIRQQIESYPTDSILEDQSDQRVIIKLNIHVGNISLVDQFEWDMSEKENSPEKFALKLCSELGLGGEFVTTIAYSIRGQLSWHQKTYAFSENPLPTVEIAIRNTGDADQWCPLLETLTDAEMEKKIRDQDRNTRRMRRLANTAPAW
Chain of UniProt Q9BZ23 (Q9BZ23 whole entry): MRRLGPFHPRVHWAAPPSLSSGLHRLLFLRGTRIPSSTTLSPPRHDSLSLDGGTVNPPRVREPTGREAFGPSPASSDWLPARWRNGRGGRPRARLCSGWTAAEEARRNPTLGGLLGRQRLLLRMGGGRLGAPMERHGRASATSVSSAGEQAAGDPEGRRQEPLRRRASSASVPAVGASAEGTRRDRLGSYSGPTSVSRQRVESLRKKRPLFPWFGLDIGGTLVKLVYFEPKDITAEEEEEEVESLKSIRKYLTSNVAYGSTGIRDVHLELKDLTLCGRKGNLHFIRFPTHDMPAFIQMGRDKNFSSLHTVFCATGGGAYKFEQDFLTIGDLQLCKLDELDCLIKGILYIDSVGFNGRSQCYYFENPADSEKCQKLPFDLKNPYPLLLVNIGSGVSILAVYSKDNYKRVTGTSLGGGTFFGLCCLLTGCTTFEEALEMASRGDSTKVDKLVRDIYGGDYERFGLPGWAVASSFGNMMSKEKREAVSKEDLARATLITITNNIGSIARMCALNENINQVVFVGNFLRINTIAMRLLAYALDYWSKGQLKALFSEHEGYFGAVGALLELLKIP
Chain of UniProt Q96GD0 (Q96GD0 whole entry): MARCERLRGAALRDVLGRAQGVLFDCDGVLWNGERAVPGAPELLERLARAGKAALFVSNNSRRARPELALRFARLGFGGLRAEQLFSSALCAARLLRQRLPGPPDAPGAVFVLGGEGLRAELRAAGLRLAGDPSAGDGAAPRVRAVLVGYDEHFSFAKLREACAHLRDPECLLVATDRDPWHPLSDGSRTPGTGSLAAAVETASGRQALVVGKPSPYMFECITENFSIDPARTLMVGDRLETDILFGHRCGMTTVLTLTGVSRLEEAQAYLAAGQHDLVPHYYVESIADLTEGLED
Chain of UniProt Q15796 (Q15796 whole entry): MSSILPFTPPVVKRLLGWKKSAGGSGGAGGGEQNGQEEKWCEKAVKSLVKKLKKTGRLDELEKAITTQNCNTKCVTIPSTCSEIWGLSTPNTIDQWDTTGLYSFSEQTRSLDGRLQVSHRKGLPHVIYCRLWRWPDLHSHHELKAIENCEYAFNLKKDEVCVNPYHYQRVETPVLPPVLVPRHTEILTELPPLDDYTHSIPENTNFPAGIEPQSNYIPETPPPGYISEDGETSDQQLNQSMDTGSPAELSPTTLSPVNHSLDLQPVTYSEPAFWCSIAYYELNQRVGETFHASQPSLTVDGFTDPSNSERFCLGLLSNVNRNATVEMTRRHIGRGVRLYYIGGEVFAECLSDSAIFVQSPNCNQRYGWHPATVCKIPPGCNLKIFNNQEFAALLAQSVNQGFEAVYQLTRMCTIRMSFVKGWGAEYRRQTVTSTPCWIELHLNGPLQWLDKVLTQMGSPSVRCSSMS
Chain of UniProt Q96SI9 (Q96SI9 whole entry): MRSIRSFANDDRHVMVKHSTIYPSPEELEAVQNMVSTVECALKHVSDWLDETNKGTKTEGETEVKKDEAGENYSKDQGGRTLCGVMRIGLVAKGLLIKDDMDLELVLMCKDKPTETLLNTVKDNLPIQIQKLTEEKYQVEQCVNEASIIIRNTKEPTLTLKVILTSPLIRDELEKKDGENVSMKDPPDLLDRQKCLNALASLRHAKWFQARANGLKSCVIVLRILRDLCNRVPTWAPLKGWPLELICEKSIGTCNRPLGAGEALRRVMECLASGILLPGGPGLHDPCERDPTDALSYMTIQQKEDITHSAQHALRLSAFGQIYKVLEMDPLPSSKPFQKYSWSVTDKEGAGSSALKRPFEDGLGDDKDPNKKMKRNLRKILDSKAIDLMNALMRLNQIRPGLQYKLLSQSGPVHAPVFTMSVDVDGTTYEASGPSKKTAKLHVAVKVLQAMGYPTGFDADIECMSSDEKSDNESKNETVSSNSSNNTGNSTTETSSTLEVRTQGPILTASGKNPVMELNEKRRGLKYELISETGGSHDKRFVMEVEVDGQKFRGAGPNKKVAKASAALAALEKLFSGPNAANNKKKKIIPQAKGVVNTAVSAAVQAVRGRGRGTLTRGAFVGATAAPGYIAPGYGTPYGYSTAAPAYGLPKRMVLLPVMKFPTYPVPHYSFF
Chain of UniProt Q9UHB4 (Q9UHB4 whole entry): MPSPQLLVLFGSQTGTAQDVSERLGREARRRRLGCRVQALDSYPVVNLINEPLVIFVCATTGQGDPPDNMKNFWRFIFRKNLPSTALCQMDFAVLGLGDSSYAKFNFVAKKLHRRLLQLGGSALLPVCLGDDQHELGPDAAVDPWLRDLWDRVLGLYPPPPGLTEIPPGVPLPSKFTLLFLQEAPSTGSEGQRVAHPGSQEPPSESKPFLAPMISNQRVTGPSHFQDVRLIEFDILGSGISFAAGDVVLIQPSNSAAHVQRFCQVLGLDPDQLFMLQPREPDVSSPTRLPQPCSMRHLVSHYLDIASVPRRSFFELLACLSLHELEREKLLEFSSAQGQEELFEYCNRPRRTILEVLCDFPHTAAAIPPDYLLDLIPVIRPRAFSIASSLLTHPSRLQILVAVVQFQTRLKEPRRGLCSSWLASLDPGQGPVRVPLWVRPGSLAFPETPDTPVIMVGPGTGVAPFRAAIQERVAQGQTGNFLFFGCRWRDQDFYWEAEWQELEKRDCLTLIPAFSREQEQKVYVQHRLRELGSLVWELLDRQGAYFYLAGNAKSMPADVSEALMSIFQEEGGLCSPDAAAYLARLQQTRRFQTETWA
Chain of UniProt P61968 (P61968 whole entry): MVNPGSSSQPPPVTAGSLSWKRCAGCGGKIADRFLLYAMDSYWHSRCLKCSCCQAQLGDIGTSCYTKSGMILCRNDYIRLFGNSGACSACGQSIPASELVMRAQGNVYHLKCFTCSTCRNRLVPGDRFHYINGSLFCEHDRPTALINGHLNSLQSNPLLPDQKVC

Target	thermal stability z-score (potassium arsenate)	thermal stability z-score (lipoamide; [1])	thermal stability z-score (lipoamide; arsenate co-treatment: none)
AKAP10 (UniProt O43572)	-0.229	-0.128	-0.105
ADPGK (UniProt Q9BRR6)	-0.315	-1.02	-0.44
SLC16A1 (UniProt P53985)	0.385	0.774	1.02
HNRNPR (UniProt O43390)	-1.96	0.306	-0.456
WDHD1 (UniProt O75717)	-0.982	1.28	1.01
DNAJC19 (UniProt Q96DA6)	0.253	0.522	0.211
ASH2L (UniProt Q9UBL3)	-1.84	0.566	-0.319
ARL6 (UniProt Q9H0F7)	0.202	0.197	0.233
MAP1S (UniProt Q66K74)	-0.318	-0.223	-0.342
COG1 (UniProt Q8WTW3)	0.183	-0.441	-0.42
AGRN (UniProt O00468)	0.582	-0.718	-1.6
TUBA4A (UniProt P68366)	-0.681	-0.0177	-0.502
CASP1 (UniProt P29466)	-0.416	-1.23	-0.846
AKAP9 (UniProt Q99996)	1.18	0.757	1.46
SGF29 (UniProt Q96ES7)	-1.03	0.571	0.347
POLR3K (UniProt Q9Y2Y1)	-3.08	0.542	0.567
KANK1 (UniProt Q14678)	0.739	0.282	0.616
SMARCB1 (UniProt Q12824)	-0.198	-0.25	-0.186
TMX1 (UniProt Q9H3N1)	-0.418	0.948	1.34
PDXP (UniProt Q96GD0)	-0.658	0.0465	0.133
ANTXR1 (UniProt Q9H6X2)	0.283	0.0337	-0.146
PMVK (UniProt Q15126)	0.0469	-0.641	0.0911
MRPL39 (UniProt Q9NYK5)	0.057	-0.499	-0.225
MBOAT7 (UniProt Q96N66)	-0.732	-0.956	-0.883

Target	thermal stability z-score (potassium arsenate)	thermal stability z-score (lipoamide; [1])	thermal stability z-score (lipoamide; arsenate co-treatment: none)
MEAF6 (UniProt Q9HAF1)	-0.821	0.687	-0.0341
FKBP5 (UniProt Q13451)	-0.667	-0.637	-0.429
HELZ2 (UniProt Q9BYK8)	-0.0872	-0.0529	-0.115
CSNK2A2 (UniProt P19784)	0.00534	0.339	0.183
SH3BP5 (UniProt O60239)	-0.00483	0.466	-0.17
DPYD (UniProt Q12882)	0.0708	0.0898	0.178
SCAP (UniProt Q12770)	-0.473	-1.13	0.0662
FADS3 (UniProt Q9Y5Q0)	-0.618	-0.431	0.482
EIF5A (UniProt P63241)	-0.005	-0.138	0.0123
ASS1 (UniProt P00966)	-1.34	-0.416	0.107
ITGA6 (UniProt P23229)	0.156	-0.0761	0.174
SLC7A6 (UniProt Q92536)	-0.695	-0.86	-0.83
PPAT (UniProt Q06203)	-0.0713	0.306	0.28
RPL22 (UniProt P35268)	-0.98	-0.122	-0.292
IBA57 (UniProt Q5T440)	-0.431	-0.0611	0.155
FMR1 (UniProt Q06787)	0.0999	0.0851	0.195
STRBP (UniProt Q96SI9)	0.571	0.867	0.71
EIF2B4 (UniProt Q9UI10)	0.533	-0.154	0.0556
CHD1L (UniProt Q86WJ1)	-0.109	-0.114	-0.0149
LMO4 (UniProt P61968)	0.164	0.548	0.0182
POLA2 (UniProt Q14181)	-0.183	-0.305	-0.0588
GLCCI1 (UniProt Q86VQ1)	-0.627	-0.207	-0.418
TH1L|NELFCD	0.0938	-0.0628	-0.0836
OSBPL9 (UniProt Q96SU4)	0.219	-0.647	-0.627

Target	thermal stability z-score (potassium arsenate)	thermal stability z-score (lipoamide; [1])	thermal stability z-score (lipoamide; arsenate co-treatment: none)
KLHL42 (UniProt Q9P2K6)	-0.142	-0.26	-0.0102
QPCTL (UniProt Q9NXS2)	-0.256	-0.434	-0.457
LRBA (UniProt P50851)	0.326	0.015	0.0915
STAM2 (UniProt O75886)	0.249	0.291	-0.113
ZMYM2 (UniProt Q9UBW7)	-0.802	-0.105	-0.0436
SLC38A10 (UniProt Q9HBR0)	-0.0408	0.639	0.226
PRKAR2A (UniProt P13861)	0.904	0.114	0.239
PSMD6 (UniProt Q15008)	-0.212	-0.22	0.0409
CNNM3 (UniProt Q8NE01)	-0.561	-0.728	0.192
CNOT1 (UniProt A5YKK6)	1.04	-0.186	0.0688
CDC5L (UniProt Q99459)	-0.167	0.945	0.573
NDOR1 (UniProt Q9UHB4)	1.08	0.000709	0.487
MMS19 (UniProt Q96T76)	-0.949	-0.784	-1.16
ABCG2 (UniProt Q9UNQ0)	1.12	0.0159	-0.208
NAXD (UniProt Q8IW45)	0.0249	-0.31	0.472
CD59 (UniProt P13987)	3.07	0.714	0.698
NLE1 (UniProt Q9NVX2)	-2.71	0.481	0.2
PANK2 (UniProt Q9BZ23)	0.53	0.583	0.588
PRNP	0.0499	0.0235	0.239
RABEP2 (UniProt Q9H5N1)	1.26	0.129	0.15
MYO5A (UniProt Q9Y4I1)	0.118	0.351	0.43
TICAM1 (UniProt Q8IUC6)	-0.325	-0.187	-0.204
CUL4B (UniProt Q13620)	-0.051	0.0797	-0.0817
SMAD2 (UniProt Q15796)	-1.26	-0.492	0.118
